In data set [1] the target is T1, CXCR3 (Homo sapiens, UniProt P49682).
T1 construct: ChemoCentryx
T1 sequence (P49682 1-368): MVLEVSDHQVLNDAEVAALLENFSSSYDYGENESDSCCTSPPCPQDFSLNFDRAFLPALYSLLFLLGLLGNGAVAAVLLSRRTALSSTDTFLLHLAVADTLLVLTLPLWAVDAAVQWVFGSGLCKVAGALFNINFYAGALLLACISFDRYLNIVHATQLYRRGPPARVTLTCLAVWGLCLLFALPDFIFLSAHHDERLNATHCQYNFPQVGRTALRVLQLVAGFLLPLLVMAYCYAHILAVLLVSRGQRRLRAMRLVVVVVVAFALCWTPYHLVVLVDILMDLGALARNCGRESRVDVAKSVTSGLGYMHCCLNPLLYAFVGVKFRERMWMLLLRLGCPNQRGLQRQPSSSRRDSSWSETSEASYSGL
Briefly: CXCR3 binding assay in binding buffer (125I-labelled chemokine, CXCR3-expressing cells). The following applies: absence of human plasma. How it is done:
(§1) CXCR3 Binding Assay: CXCR3 binding assays were conducted as previously described (see, e.g., Example 12 in WO 02/083143, incorporated herein by reference in its entirety), in the absence (“binding buffer”) or presence of human plasma. Unless otherwise noted, all reagents used are available from commercial sources (e.g., Sigma-Aldrich, St. Louis, Mo., USA). Test compounds are diluted in DMSO to a concentration that is 40-times the intended final assay concentration; 5 μL are transferred to each well of a 96-well flat-bottomed polypropylene plate (e.g., from Greiner, Inc.). CXCR3-expressing cells obtained from ChemoCentryx were used in the assays to generate the data set forth below. The cells were resuspended in assay buffer (25 mM Hepes, 80 mM NaCl, 1 mM CaCl2, 5 mM MgCl2, 0.2% bovine serum albumin, pH 7.1, stored at 4° C.) at 5 million cells per mL; 100 μL of this cell suspension is then transferred to each well of a 96-well plate containing the diluted test compounds. ^125I-labelled chemokine (purchased from commercial sources, e.g., Amersham, PE Life Sciences) is diluted in assay buffer to a concentration of approximately […]; 100 μL of this chemokine solution is transferred to each well of a 96-well plate containing compounds and cell suspension. The plates are sealed with commercially available foil plate seals (e.g., from E&K Scientific), and stored at 4° C. for a period of 2 to 4 h, shaking gently. At the end of this incubation period, the contents of the assay plates are transferred to GF/B filter plates (Packard) that have been pre-coated by dipping into a solution containing 0.3% polyethyleneimine (Sigma-Aldrich), using a cell harvester (Packard), and washing twice with wash buffer (25 mM Hepes, 500 mM NaCl, 1 mM CaCl2, 5 mM MgCl2, pH 7.1, stored at room temperature). The filter plates are sealed on the bottom with plate seals (Packard), 50 μL of Microscint-20 scintillation fluid (Packard) is added to each well, and the top of the plates are sealed with clear plastic (TopSeal A, Packard). The plates are counted on a scintillation counter, such as a Packard TopCount. To measure non-specific binding, 4 wells containing unlabelled “cold” chemokine were included on each 96-well plate. To measure maximum binding, 4 wells containing 5 μL of DMSO, 100 μL of cell suspension and 100 μL of ^125I-labelled chemokine solution were included on each 96-well plate. Data were analyzed using commercially available software (e.g., Excel from Microsoft, Prism from GraphPad Software Inc.).

Data set [2] deals with T1, CXCR3. Briefly: CXCR3 binding assay in presence of human plasma. The procedure: as §1
Data set [3] deals with Human peripheral blood mononuclear cells (PBMCs). Briefly: I-TAC migration assay. In kind it is cell-based. The following applies: PBMC; activated human PBMCs, human ITAC, in human plasma. The procedure:
I-TAC migration assay: Human peripheral blood mononuclear cells (PBMCs) were activated with OKT3 (purified by AB solutions from hybridoma cell line OKT3 (ATCC CRL-8001)) and IL-2 (Peprotech, Inc., Rocky Hill, N.J., USA). After fourteen days, the cells were loaded with chloromethyl-fluoroscein-diacetate (CMFDA) (Molecular Probes, Inc.) by incubating the activated PBMCs in 1 ng/mL CMFDA for >1.5 hours at 37° C. in a tissue culture incubator. While cells were loading, the test compounds were diluted in DMSO to a concentration that is 100-times the intended final assay concentration. Next, 100 ng/mL of human ITAC (Peprotech) in human plasma (EDTA, drug free, Biological Specialty Corp) was prepared. Test compounds were added to the human ITAC preparation. Cells were washed once in prewarmed (37° C.) RPMI (Invitrogen) media with 0.5% BSA and resuspended to 5 million cells/ml in human plasma. The test compounds were added to the PBMCs. A 96-well chemotaxis migration plate (NeuroProbe, Inc.) was assembled by adding, per well, 30 uL of ITAC/compound mixture in the lower chamber, placing the […] membrane on top of the ITAC/compound well, and adding 50 uL of the PBMC/compound mixture to the well. The plates were covered and incubated in a humidified tissue culture incubator for 2.5 hours. A standard curve of CMFDA-loaded cells to be used as a reference for the test plates was prepared. Migration plates were disassembled and are read in a fluorometric plate reader set to 475 nm absorbance, 517 nm emission. The fluorometric reading was converted to cell number using the standard curve and calculating the percentage of migrating cells.

The subject of data set [4] is CYP3A4. Briefly: Time dependent CYP inhibition assay (midazolam, pooled human liver microsomes). The following applies: preincubation with NADPH, midazolam marker substrate. A general note: Liver microsomes are a subcellular fraction often used to study metabolism.
Protocol: (§3) CYP Inhibition Assay: Time dependent CYP inhibition assays were initiated by incubating a test compound in 0.1 mM phosphate buffer containing pooled human liver microsomes (1 mg/mL protein) in the presence of NADPH for 0, 15 and 30 minutes. At each time point, an aliquot of the preincubation mixture was removed and added to 0.1 mM phosphate buffer containing marker substrate (midazolam) and fresh NADPH. The residual CYP activity, after the preincubation times of 0, 15, and 30 minutes, was monitored for 5 minutes. Data are expressed as the % 1-OH midazolam formation at 15 minutes compared to that formed at 0 minutes. […] DMSO (vehicle control) caused an approximate 10% drop in CYP activity over 15 minutes.
The nature of the next data set: Rat PK (IV). The following applies: in vivo. The procedure: (§2) Pharmacokinetics of exemplary compounds of the invention was assessed in rats.
A short description of another data set: Rat PK PO. In kind it is in vivo. Particulars: Sprague-Dawley, plasma; for bioavailability: read-out: Rat PK PO F %. How it is done: In Vivo Metabolic Evaluation in Rat: To study the metabolic fate of test compounds in vivo, Sprague-Dawley (SD) rats were administered (orally gavage) test compound in suspension. Blood samples (˜0.3 mL/timepoint) were collected at 1, 2, 4, 8, 24, 30 and 48 hours post-dose into EDTA containing tubes. All blood samples were collected via tail artery venipuncture under isofluorane anesthesia. Blood samples were processed for plasma by centrifugation and stored frozen until analysis (−20° to −70° C.). Samples were analyzed using a sensitive and selective LC/MS/MS method. Briefly, samples were prepared for analysis using protein precipitation. An aliquot of the resulting supernatant was subjected to LC/MS/MS analysis. Separation of the analytes from endogenous material was achieved using an reverse phase HPLC. Column effluent was monitored using a Sciex API 365 triple quadrapole mass spectrometer with a Sciex TurboIon Spray probe. Unknown concentrations of testing articles were determined using a calibration curve from 1 to 2000 ng/mL.
as §2

The subject of data set [5] is CYP3A4. Particulars: microsomes.
Protocol: as §3

Where two headings read alike, the source gives them in different places.

As usually defined, the IC50 is the point on the concentration scale where inhibition reaches its midpoint. Take `CCOc1ccc(-c2c([C@@H](C)N(CCS(=O)(=O)CC)C(=O)Cc3ccc(F)c(C(F)(F)F)c3)nc3ccccn3c2=O)cc1`: the figures for the IC50 (at CXCR3 [1]; on CXCR3 [2]; in data set [3]) were 1 nM, 57 nM and 183 nM, respectively.
As to `CCS(=O)(=O)CCN(C(=O)Cc1ccc(F)c(C(F)(F)F)c1)[C@H](C)c1nc2ccccn2c(=O)c1-c1ccc(O)cc1`, the results for the IC50 on CXCR3 [1] and on CXCR3 [2] were 816 nM and 4080 nM, respectively. Moreover, in the data set on CYP3A4 [4], the “Time Dependent CYP3A4 Inhibition” value is recorded as “Yes”.
In the case of `CCS(=O)(=O)CCN(C(=O)Cc1ccc(F)c(C(F)(F)F)c1)[C@H](C)c1nc2ncccn2c1-c1ccc(C#N)cc1`, the IC50 on CXCR3 [1] stood at 10 nM; at CXCR3 [2] it was 49 nM; in data set [3], 83 nM.
In turn, `CCS(=O)(=O)CCN(C(=O)Cc1ccc(F)c(C(F)(F)F)c1)[C@H](C)c1nc2ccccn2c(=O)c1-c1ccc(C#N)cc1` came in with a concentration for half-maximal inhibition (IC50) in data set [3] of 41 nM.
As for `CCOc1ccc(-c2c([C@@H](C)N(CCS(=O)(=O)CC)C(=O)Cc3ccc(F)c(C(F)(F)F)c3)nc3ncccn23)cc1`, the IC50 on CXCR3 [1] was determined as 4 nM; at CXCR3 [2], 70 nM; in data set [3], 1500 nM.
With `CCOc1ccc(-n2c([C@@H](C)N(CCS(=O)(=O)CC)C(=O)Cc3ccc(F)c(C(F)(F)F)c3)nc3ncccc3c2=O)cc1`, the IC50 on CXCR3 [1] turned out to be 1 nM; on CXCR3 [2], 7 nM; in data set [3], 22 nM.
As a reminder, the MRT is a mean duration of stay, worked out from the concentration-time curve. For `CCS(=O)(=O)CCN(C(=O)Cc1ccc(F)c(C(F)(F)F)c1)[C@H](C)c1nc2ncccc2c(=O)n1-c1ccc(C#N)cc1` [drawing 199], in “Rat PK (IV)” (read-out: Rat PK(IV) Cl (converted)), the clearance was 39.7 mL/min/kg. Further, in “Rat PK PO”, the MRT turned out to be 1.5 h and the bioavailability is 47.2%.
In the case of `CCS(=O)(=O)CCN(C(=O)Cc1ccc(F)c(C(F)(F)F)c1)[C@H](C)c1nc2ncccc2c(=O)n1-c1ccc(O)cc1`, the “Time Dependent CYP3A4 Inhibition” value in the data set with CYP3A4 [4] is “Yes”.
`CCS(=O)(=O)CCN(C(=O)Cc1ccc(F)c(C(F)(F)F)c1)[C@H](C)c1nc2ncccc2c(=O)n1-c1ccc(C#N)cc1` [drawing 192] displayed an IC50 in data set [3] of 120 nM. Besides, the “Time Dependent CYP3A4 Inhibition” value in the data set with CYP3A4 [5] is on record as “NO”.
On to `CCS(=O)(=O)CCN(C(=O)Cc1ccc(C(F)(F)F)c(F)c1)[C@H](C)c1nc2ncccn2c(=O)c1-c1ccc(C#N)cc1`, for which the Vd in “Rat PK (IV)” (read-out: Rat PK(IV) Vdss) was found to be 0.31 L/kg. Further, in “Rat PK PO”, the MRT is 3.96 h and the bioavailability was 24%.
With `CCS(=O)(=O)CCN(C(=O)Cc1ccc(F)c(C(F)(F)F)c1)[C@H](C)c1nc2ncccn2c1-c1ccc(O)cc1`, the 50% inhibitory concentration (IC50) at CXCR3 [1] and on CXCR3 [2] was 10000 nM in each case. For the same compound, the “Time Dependent CYP3A4 Inhibition” value in the data set with CYP3A4 [4] is reported as “Yes”.

The record behind these values is patent publication US7799795B2, “Aryl nitrile compounds and compositions and their uses in treating inflammatory and related disorders” (Amgen Inc., priority 2005, dated 2010).
